In ChEMBL document CHEMBL1201862, “PubChem BioAssay data set” (2004):
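Protocol summary: plate cells (96-well), add compound at 5 concentrations, incubate 48 h, interpolate endpoints linearly. At the GI50, growth is halved.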 Activity calls are given as the source filed them. No stated cut-off is given here; in the data, active = GI50 up to about 1.1 µM and inactive = higher.

What was measured:
Assay in all cases: NCI tumour cell line growth inhibition, 48 h
DU-145 = tested on: DU-145
SF-268 = tested on: SF-268
U-251 = tested on: U-251
NCI-H23 = tested on: NCI-H23
ACHN = tested on: ACHN
MOLT-4 = tested on: MOLT-4
SF-539 = tested on: SF-539
OVCAR-8 = tested on: OVCAR-8
MDA-MB-435 = tested on: MDA-MB-435
HCC 2998 = tested on: HCC 2998
HT-29 = tested on: HT-29
OVCAR-4 = tested on: OVCAR-4
UACC-257 = tested on: UACC-257
A549 = tested on: A549
UO-31 = tested on: UO-31
SN12C = tested on: SN12C
IGROV-1 = tested on: IGROV-1
KM12 = tested on: KM12
MDA-MB-231 = tested on: MDA-MB-231
SNB-19 = tested on: SNB-19

Measured: GI50

Cc1ccc(OCC2OC(n3cnc4nc(Cl)nc(Cl)c43)CC2Oc2ccc(C)cc2)cc1 (stereo unspecified)
inactive: DU-145 12.9 µM | SF-268 7.01 µM | U-251 11.1 µM | NCI-H23 7.71 µM | ACHN 3.05 µM | MOLT-4 2.01 µM | SF-539 5.94 µM | OVCAR-8 13.1 µM | MDA-MB-435 5.3 µM | HCC 2998 3.39 µM | HT-29 5.85 µM | OVCAR-4 15.7 µM | UACC-257 12.9 µM | A549 27.3 µM | UO-31 10.1 µM | SN12C 7.31 µM | IGROV-1 5.36 µM | KM12 8.73 µM | MDA-MB-231 2.51 µM | SNB-19 15.7 µM

O=c1[nH]cc(/N=C/c2cc(Cl)ccc2O)c(=O)[nH]1
inactive: DU-145 21.6 µM | SF-268 5.62 µM | U-251 8.05 µM | NCI-H23 19 µM | ACHN 13.7 µM | MOLT-4 3.88 µM | SF-539 1.89 µM | OVCAR-8 4.35 µM | MDA-MB-435 29.1 µM | HCC 2998 23.6 µM | HT-29 31.3 µM | OVCAR-4 2.18 µM | UACC-257 58.7 µM | A549 > 100 µM | UO-31 29.6 µM | SN12C 9.04 µM | IGROV-1 7.83 µM | KM12 26.2 µM | MDA-MB-231 19.6 µM | SNB-19 20.7 µM

COc1cc(C)c(/C=C/C(=O)N2C(=O)OC[C@@H]2c2ccccc2)c(C)c1
inactive: DU-145 37.6 µM | SF-268 > 100 µM | U-251 > 100 µM | NCI-H23 > 100 µM | ACHN > 100 µM | MOLT-4 31.1 µM | SF-539 > 100 µM | OVCAR-8 40.2 µM | MDA-MB-435 > 100 µM | HCC 2998 73.1 µM | HT-29 18.6 µM | OVCAR-4 81.3 µM | UACC-257 88.7 µM | A549 > 100 µM | UO-31 > 100 µM | SN12C > 100 µM | IGROV-1 > 100 µM | KM12 61.9 µM | MDA-MB-231 > 100 µM | SNB-19 > 100 µM

CC(=O)OC1C2CCC1C1C2N=NN1c1ccc([N+](=O)[O-])cc1 (stereo unspecified)
inactive: DU-145 > 100 µM | SF-268 > 100 µM | U-251 > 100 µM | NCI-H23 > 100 µM | ACHN > 100 µM | MOLT-4 > 100 µM | SF-539 > 100 µM | OVCAR-8 > 100 µM | MDA-MB-435 > 100 µM | HCC 2998 > 100 µM | HT-29 > 100 µM | OVCAR-4 > 100 µM | UACC-257 > 100 µM | A549 > 100 µM | UO-31 > 100 µM | SN12C > 100 µM | IGROV-1 > 100 µM | KM12 > 100 µM | MDA-MB-231 > 100 µM | SNB-19 > 100 µM

C[C@H]1O[C@@H](c2c(O)ccc3ccccc23)C[C@@H](N(C)C)C1O (stereo partly specified)
inactive: DU-145 > 100 µM | SF-268 > 100 µM | U-251 > 100 µM | NCI-H23 > 100 µM | ACHN > 100 µM | SF-539 > 100 µM | OVCAR-8 > 100 µM | MDA-MB-435 > 100 µM | HCC 2998 36.6 µM | HT-29 54.6 µM | OVCAR-4 > 100 µM | UACC-257 26.5 µM | A549 > 100 µM | UO-31 41.4 µM | SN12C > 100 µM | IGROV-1 73.6 µM | MDA-MB-231 > 100 µM | SNB-19 > 100 µM

CC1=C(/C=C/C(C)=C/C=C/C(C)=C/C(=O)O)C(C)(C)CCC1 [TRETINOIN]
inactive: DU-145 55.3 µM | SF-268 > 62.5 µM | U-251 51.3 µM | NCI-H23 55.3 µM | ACHN 48.5 µM | MOLT-4 43.6 µM | SF-539 48.6 µM | OVCAR-8 > 65.3 µM | MDA-MB-435 > 58.5 µM | HCC 2998 51.6 µM | HT-29 47.6 µM | OVCAR-4 > 70 µM | UACC-257 62.4 µM | A549 39.9 µM | UO-31 > 64.3 µM | SN12C 52 µM | IGROV-1 > 78.9 µM | KM12 42.3 µM | MDA-MB-231 50.4 µM | SNB-19 47.5 µM

CC(=O)NCC1OC2COC(c3ccccc3)OC2C(NC(=O)c2ccccc2)C1OC(=O)c1ccccc1 (stereo unspecified)
inactive: DU-145 > 100 µM | SF-268 > 100 µM | U-251 > 100 µM | NCI-H23 > 100 µM | ACHN > 100 µM | MOLT-4 86.7 µM | SF-539 > 100 µM | OVCAR-8 > 100 µM | MDA-MB-435 > 100 µM | HCC 2998 > 100 µM | HT-29 > 100 µM | OVCAR-4 > 100 µM | UACC-257 > 100 µM | A549 > 100 µM | UO-31 > 100 µM | SN12C 60.3 µM | KM12 > 100 µM | MDA-MB-231 > 100 µM | SNB-19 > 100 µM

COC(=O)[C@H](Cc1ccccc1)NC(=O)NCCN(CCNC(=O)N[C@@H](Cc1ccccc1)C(=O)OC)C(=O)N[C@@H](Cc1ccccc1)C(=O)OC
inactive: DU-145 21.1 µM | SF-268 17 µM | U-251 21.8 µM | NCI-H23 18.9 µM | ACHN 24.5 µM | MOLT-4 20.2 µM | SF-539 18.8 µM | OVCAR-8 18.3 µM | MDA-MB-435 22.3 µM | HCC 2998 20.3 µM | OVCAR-4 15.2 µM | UACC-257 20.7 µM | A549 29 µM | UO-31 24.3 µM | SN12C > 10 µM | KM12 20.9 µM | MDA-MB-231 23.7 µM | SNB-19 24.7 µM

CC(=O)Oc1ccc2c(c1)CC[C@@H]1C2CC[C@]2(C)C(=O)NC(=O)CC12 (stereo partly specified)
inactive: DU-145 > 100 µM | SF-268 > 100 µM | U-251 > 100 µM | NCI-H23 > 100 µM | ACHN > 100 µM | MOLT-4 > 100 µM | SF-539 > 100 µM | OVCAR-8 > 100 µM | MDA-MB-435 > 100 µM | HCC 2998 > 100 µM | HT-29 > 100 µM | OVCAR-4 > 100 µM | UACC-257 > 100 µM | A549 > 100 µM | UO-31 > 100 µM | SN12C > 100 µM | IGROV-1 > 100 µM | KM12 > 100 µM | MDA-MB-231 > 100 µM | SNB-19 > 100 µM

C#CCNC(=O)NC(CCCCNC(=O)OCc1ccccc1)C(=O)OCc1ccccc1 (stereo unspecified)
inactive: DU-145 > 100 µM | SF-268 67.6 µM | U-251 > 72.1 µM | NCI-H23 76.2 µM | ACHN 40.1 µM | MOLT-4 31 µM | SF-539 38.9 µM | OVCAR-8 95.1 µM | MDA-MB-435 22.8 µM | HCC 2998 31.5 µM | HT-29 > 56.2 µM | OVCAR-4 > 100 µM | UACC-257 19.7 µM | A549 > 77.6 µM | UO-31 21.6 µM | SN12C 37.4 µM | IGROV-1 > 100 µM | KM12 99.8 µM | MDA-MB-231 > 39.2 µM | SNB-19 > 100 µM

N#Cc1ccc(Nc2nc3[nH]cnc3c(=O)[nH]2)cc1
inactive: DU-145 > 100 µM | SF-268 > 100 µM | U-251 > 100 µM | NCI-H23 > 100 µM | ACHN > 100 µM | MOLT-4 > 100 µM | SF-539 > 100 µM | OVCAR-8 > 100 µM | MDA-MB-435 > 100 µM | HCC 2998 > 100 µM | HT-29 > 100 µM | OVCAR-4 > 100 µM | UACC-257 > 100 µM | A549 > 100 µM | UO-31 > 100 µM | SN12C > 100 µM | IGROV-1 > 100 µM | KM12 > 100 µM | MDA-MB-231 > 100 µM | SNB-19 > 100 µM

O=C(Nc1ccccc1)c1cc2c(cc1Cl)SC(NNCCO)=NS2(=O)=O
inactive: DU-145 > 100 µM | SF-268 > 100 µM | U-251 > 100 µM | NCI-H23 > 100 µM | ACHN > 100 µM | MOLT-4 > 100 µM | SF-539 > 100 µM | OVCAR-8 > 100 µM | MDA-MB-435 > 100 µM | HCC 2998 > 100 µM | HT-29 > 100 µM | OVCAR-4 > 100 µM | UACC-257 > 100 µM | UO-31 > 100 µM | IGROV-1 > 100 µM | KM12 > 100 µM | MDA-MB-231 > 100 µM | SNB-19 > 100 µM

O=C1NC(=O)c2ccccc2/C1=C/c1ccc2c(c1)OCO2
inactive: DU-145 40.3 µM | SF-268 21.8 µM | NCI-H23 22.3 µM | ACHN 15.8 µM | MOLT-4 11.5 µM | SF-539 21.5 µM | OVCAR-8 28 µM | MDA-MB-435 18.4 µM | HCC 2998 14.6 µM | HT-29 20.8 µM | OVCAR-4 49.1 µM | UACC-257 21.4 µM | A549 34 µM | UO-31 17.2 µM | SN12C 19.9 µM | IGROV-1 23.7 µM | KM12 17 µM | MDA-MB-231 12.3 µM | SNB-19 32 µM

OC[C@H]1CC(c2nn[nH]n2)[C@H](O)[C@@H]1O (stereo partly specified)
inactive: DU-145 > 100 µM | SF-268 > 100 µM | U-251 > 100 µM | NCI-H23 > 100 µM | ACHN > 100 µM | MOLT-4 > 100 µM | SF-539 > 100 µM | OVCAR-8 > 100 µM | MDA-MB-435 > 100 µM | HCC 2998 > 100 µM | HT-29 > 100 µM | OVCAR-4 > 100 µM | A549 > 100 µM | UO-31 > 100 µM | SN12C > 100 µM | IGROV-1 > 100 µM | KM12 > 100 µM | MDA-MB-231 > 100 µM | SNB-19 > 100 µM
